How the values were obtained:
[1] = Plasma pharmacokinetics of Posiphen and its N1 and N8 metabolites (LC-MS, non-compartmental); assay type: in vivo, human; conditions: for Tmax: median (min-max); for AUC(0-t) / Cmax: 60 mg; for AUC(0-t): read-out: AUC0 − 24; for Cmax: read-out: Cmax; for mean levels averaged over 24 h of CSF sampling: after 21–23 days, early AD
Source text: (§1) For the confinement visit, subjects arrived in the early morning after an overnight fast. Physical and neurological examination, vital signs, and assessment of compliance were completed and blood was drawn for safety laboratory tests. An intravenous line and a second line for repeated blood draw were placed. To sample CSF, the intrathecal space was accessed using a Perifix 18G Touhy Epidural Needle (90 mm), and a Polyamide Epidural Catheter (20G Closed Tip) was inserted and fixed in place by an Anesthesiologist. Participants received the last day’s dosing of study drug or placebo. Initial blood and CSF samples were drawn, intravenous infusion of ^13C6-leucine was started and continued for 9 h, during which time subjects received a low leucine diet. Blood and CSF were sampled every 2 h for 36 h. After 36 h, intravenous lines and the CSF catheter were removed, vital signs were measured, physical exam performed, and blood and CSF were sent for routine laboratory studies. […] If postural headache was present, a blood patch was performed. Once stable, participants underwent a brief exam and vital sign check and were discharged. They received a phone call 24 h after discharge to check on their wellbeing.
(§2) For biochemical analysis to derive data for SILK, ^13C6-leucine was analyzed in plasma and CSF by mass spectrometry, and Aβ peptides in CSF were analyzed by immunoprecipitation-mass spectrometry (IP-MS) as previously described, by C2N Diagnostics (St Louis, MO). CSF levels of sAPPα, sAPPβ, Aβ38, 40 and 42 were analyzed by the ADCS Biomarker Core using Mesoscale Discovery (MSD) electrochemiluminescent assays (Mesoscale Discovery, Rockville, MD). Levels of Posiphen and its N1 and N8 metabolites in plasma and CSF were measured by Charles River Laboratories (Montreal, CA) by high-performance liquid chromatographic mass spectrometry, with use of deuterated Posiphen (procured by Charles River Laboratories) as an internal standard.
(§3) A prespecified Statistical Analysis Plan (SAP) was prepared and finalized before the database lock occurred. For safety and tolerability, frequencies of adverse events, serious adverse events and laboratory abnormalities between the participants across the three groups are compared, using Pearson’s χ [2] or ANOVA, as appropriate. Plasma concentration-time data are analyzed by non-compartmental methods using WinNonlin version 6.2.1 or greater. Calculations are based on the actual sampling times recorded during the study. For PK analysis, only the subjects receiving Posiphen are included.
(§4) Noncompartmental pharmacokinetic parameters were estimated using Phoenix WinNonlin v8.3 (Certara, Princeton, NJ). Levels and parameters (Cmax, AUC) of posiphen, n-1 and n-8 metabolites were highly correlated in plasma and CSF. For the BID and TID doses the expected post dose plasma peaks appeared attenuated.

[2] = CSF pharmacokinetics of Posiphen and its N1 and N8 metabolites (lumbar catheter sampling, LC-MS); assay type: in vivo, human; conditions: for mean levels averaged over 24 h of CSF sampling: after 21–23 days, early AD; for Tmax: median (min-max); for AUC(0-t) / Cmax: 60 mg; for AUC(0-t): read-out: AUC0 − 24; for Cmax: read-out: Cmax
Source text: as §1, §2, §3, §4

Aβ38 [3] = assay: SILK analysis of CSF Aβ38 (fractional synthesis rate); assay type: in vivo, human; conditions: after 21 days
Experimental: as §2
(§5) For SILK, the fraction of labeled Aβ for Aβ38, 40, and 42 during 36 h after administration of study drug for each subject was calculated, as described. The FSR measures were calculated by fitting a line to the upslope of the CSF Aβ labeling data. It was assumed that the upslope occurred between hours 6–16 h after the start of confinement. […] The percentage of newly synthesized and degraded Aβ was estimated over 36 h by multiplying the […] concentration of Aβ measured at the start of confinement (i.e. at catheter placement; time = 0) by the percentage of Aβ that contains ^13C6-leucine at each time point. […]

Aβ42 [4] = assay: SILK analysis of CSF Aβ42 (fractional synthesis rate); assay type: in vivo, human; conditions: after 21 days
Experimental: as §2, §5

Aβ38 [5] = assay: CSF Aβ38 level, screening to day 21 (MSD immunoassay); assay type: in vivo, human; conditions: ANOVA with age and sex as covariates; p = 0.47
Experimental: as §2
(§6) Changes in CSF biomarkers from the screening to confinement (sample at time of placement of catheter) were compared in the treatment and placebo groups by ANOVA, with models that included age, sex and baseline MMSE, and further analysis stratified by treatment dose. A similar approach was taken to analyze changes in MMSE, ADAS-cog and NPI. Data were analyzed using R (version 4.2.2).

Aβ42 [6] = assay: CSF Aβ42 level, screening to day 21 (MSD immunoassay); assay type: in vivo, human; conditions: ANOVA with age and sex as covariates; p = 0.33
Experimental: as §2, §6

sAPPα = assay: CSF sAPPα level, screening to day 21 (MSD immunoassay); assay type: in vivo, human; conditions: ANOVA with age and sex as covariates; p = 0.38
Experimental: as §2, §6

Total tau = assay: CSF total tau level, screening to day 21; assay type: in vivo, human
Experimental: as §6

[7] = Safety and tolerability (adverse events, vital signs, EKG, laboratory tests); assay type: in vivo, human
Experimental: Safety measures included adverse events, vital signs, EKG and laboratory tests. The Mini-Mental State Examination (MMSE), Alzheimer’s Disease Assessment Scale-cognitive (ADAS-cog12) and Neuropsychiatric Inventory (NPI) were used as cognitive and behavioral outcomes,.
as §3

[8] = parameters: method as in PMID 22791904; conditions: cited from earlier work
APP mRNA = system: APP mRNA; parameters: method as in PMID 20558735, PMID 22693681; conditions: resulting in decreased production of APP and Aβ; cited from earlier work
[9] = human, plasma, oral, plasma, 60 mg BID (n = 5), geometric mean (% geometric CV)
[10] = human, plasma, oral, plasma, 60 mg TID (n = 1)
[11] = human, plasma, oral, plasma, 60 mg daily (n = 4), geometric mean (% geometric CV)
[12] = plasma, 60 mg daily (n = 4), geometric mean (% geometric CV)
[13] = human, oral, 60 mg BID (n = 5), geometric mean (% geometric CV)
[14] = human, oral, 60 mg daily (n = 4; N1: only one participant measurable), geometric mean (% geometric CV)

For `CN1CC[C@]2(C)c3cc(OC(=O)Nc4ccccc4)ccc3N(C)[C@H]12` [Posiphen], the “plasma exposure with more frequent dosing” value ([1]; 60 mg once, twice, three times daily) was “did not increase proportionally”, the half-life ([1]; human, oral, plasma, 60 mg daily (n = 4), geometric mean (% geometric CV)) was 3.55 h and the Tmax ([1]; human, oral, plasma, 60 mg daily (n = 4), read-out: Tmax) was 2 h. The AUC(0-t) [1, 9] was 196 ng·h/mL, the Cmax [1, 9] was 30.4 ng/mL and the AUC(0-t) [1, 10] was 288 ng·h/mL. It also gave a Cmax [1, 10] of 51.8 ng/mL, an AUC(0-t) [1, 11] of 212 ng·h/mL and a Cmax [1, 11] of 52.7 ng/mL. The “mean levels averaged over 24 h of CSF sampling” value (“mean levels averaged over 24 h” for short) ([1]; plasma, 60 mg BID (n = 5)) was 9.51 ± 5.77 ng/mL, the Tmax ([1]; plasma, 60 mg BID (n = 5)) was 2 (2–12) hr and the “mean levels averaged over 24 h” value ([1]; plasma, 60 mg TID (n = 1)) was 12.01 ng/mL. The Cl/F [1, 12] was 274.04 (17.50) L/hr, the V/F [1, 12] was 1403.1 (59.23) L and the “mean levels averaged over 24 h” value ([1]; plasma, 60 mg once daily (n = 5)) was 7.16 ± 4.25 ng/mL. For the same molecule, the “mean levels averaged over 24 h” value ([2]; 60 mg (n = 5)) was 0.46 ± 0.30 ng/mL, the “mean levels averaged over 24 h” value ([2]; 60 mg BID (n = 5)) was 0.73 ± 0.53 ng/mL and the Tmax ([2]; 60 mg BID (n = 5)) was 2 (2–20) hr. The “mean levels averaged over 24 h” value ([2]; 60 mg TID (n = 1)) was 0.71 ng/mL, the Tmax ([2]; human, oral, 60 mg daily (n = 4; N1: only one participant measurable), read-out: Tmax) was 2 h and the AUC(0-t) [2, 13] was 17.9 ng·h/mL. For the same molecule, the Cmax [2, 13] was 2.21 ng/mL, the AUC(0-t) ([2]; human, oral, 60 mg TID (n = 1)) was 25 ng·h/mL and the Cmax ([2]; human, oral, 60 mg TID (n = 1)) was 2.44 ng/mL. The AUC(0-t) [2, 14] was 12.3 ng·h/mL, the Cmax [2, 14] was 2.85 ng/mL and the “effect on FSR estimates for Aβ38 vs. placebo” value (Aβ38 [3]) was “no significant effect”. For the same molecule, the “effect on FSR estimates for Aβ42 vs. placebo” value (Aβ42 [4]) was “no significant effect”, the “CSF Aβ38, Treatment difference (Posiphen – placebo)” value (Aβ38 [5]) was -0.202 (0.27) p = 0.47 pg/mL and the “CSF Aβ42, Treatment difference (Posiphen – placebo)” value (Aβ42 [6]) was -0.104 (0.102) p = 0.33 pg/mL. For the same molecule, the “CSF sAPPα, Treatment difference (Posiphen – placebo)” value (sAPPα) was 9.99 (10.8) p = 0.38 pg/mL, the “CSF Total tau, Treatment difference (Posiphen – placebo)” value (Total tau; ANOVA with age and sex as covariates, p = 0.39) was 133 (149) p = 0.39 pg/mL and the “CSF Total tau, Day 21” value (Total tau; Posiphen arm, all doses (n = 10), screening 751 ± 404 (n = 11)) was 849 ± 369 (n = 10) pg/mL. For the same molecule, the “CSF Total tau, LS mean change” value (Total tau; screening to day 21, SEM 79.1, placebo 53.7) was 186.4 pg/mL, the ECG parameters ([7]; Posiphen vs placebo groups) was “no significant changes or differences” and the laboratory safety parameters ([7]; Posiphen vs placebo groups) was “no clinically significant changes”. For the same molecule, the safety and tolerability ([7]; early AD, 60 mg once, twice or three times per day for 21–23 days, 11 received Posiphen, 7 placebo) was “safe and was generally well tolerated”, the “adverse events (AEs), frequency vs placebo” value ([7]; early AD, 21–23 days) was “did not differ in frequency between the groups” and the vital signs ([7]; early AD, 21–23 days) was “no significant changes”. The “safety and tolerability, multiple dose studies” value ([8]; 20, 40 or 60 mg given four times per day) was “safe and well-tolerated”, the gastro-intestinal side effects ([8]; Single Ascending Dose study, daily dose of 160 mg or higher) was “high rate of gastro-intestinal side effects” and the plasma half-life ([8]; oral, up to four times per day) was “short”. For the same molecule, the “translation of APP mRNA” value (APP mRNA) was “decreased”.

From PMC11225352, “A multicenter, randomized, double-blind, placebo-controlled ascending dose study to evaluate the safety, tolerability, pharmacokinetics (PK) and pharmacodynamic (PD) effects of Posiphen in subjects with early Alzheimer’s Disease” (Alzheimer's Research & Therapy, 2024)
